Assay results as given in PubChem BioAssay (NCI).
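Cultured in 96-well plates, cells were exposed to test compound for 48 hours across five concentrations. GI50 marks 50% less growth. TGI: total growth inhibition.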

Assays:
Assay in all cases: growth of human tumour cells (NCI), 48 h
OVCAR-4 ovarian = tested on: OVCAR-4 ovarian
HOP-92 NSCLC = tested on: HOP-92 NSCLC
UACC-62 melanoma = tested on: UACC-62 melanoma
SK-OV-3 ovarian = tested on: SK-OV-3 ovarian
SF-268 CNS = tested on: SF-268 CNS
U251 CNS = tested on: U251 CNS
TK-10 renal = tested on: TK-10 renal
KM12 colon = tested on: KM12 colon
DU-145 prostate = tested on: DU-145 prostate
ACHN renal = tested on: ACHN renal
BT-549 breast = tested on: BT-549 breast
UACC-257 melanoma = tested on: UACC-257 melanoma
SNB-19 CNS = tested on: SNB-19 CNS
SF-295 CNS = tested on: SF-295 CNS
UO-31 renal = tested on: UO-31 renal
LOX IMVI melanoma = tested on: LOX IMVI melanoma
HS 578T breast = tested on: HS 578T breast
OVCAR-5 ovarian = tested on: OVCAR-5 ovarian
HL-60(TB) leukemia = tested on: HL-60(TB) leukemia
MCF7 breast = tested on: MCF7 breast
SNB-75 CNS = tested on: SNB-75 CNS
SK-MEL-2 melanoma = tested on: SK-MEL-2 melanoma
NCI/ADR-RES ovarian = tested on: NCI/ADR-RES ovarian
PC-3 prostate = tested on: PC-3 prostate
NCI-H226 lung = tested on: NCI-H226 lung
MALME-3M melanoma = tested on: MALME-3M melanoma
HCT-116 colon = tested on: HCT-116 colon
COLO 205 colon = tested on: COLO 205 colon
OVCAR-8 ovarian = tested on: OVCAR-8 ovarian
HOP-62 NSCLC = tested on: HOP-62 NSCLC
HT29 colon = tested on: HT29 colon
K-562 leukemia = tested on: K-562 leukemia
MDA-MB-435 = tested on: MDA-MB-435
IGROV1 ovarian = tested on: IGROV1 ovarian
NCI-H460 lung = tested on: NCI-H460 lung
M14 melanoma = tested on: M14 melanoma
SF-539 CNS = tested on: SF-539 CNS
CAKI-1 renal = tested on: CAKI-1 renal
RPMI-8226 leukemia = tested on: RPMI-8226 leukemia
NCI-H23 lung = tested on: NCI-H23 lung
SN12C renal = tested on: SN12C renal
786-0 renal = tested on: 786-0 renal
HCC-2998 colon = tested on: HCC-2998 colon
CCRF-CEM leukemia = tested on: CCRF-CEM leukemia
OVCAR-3 ovarian = tested on: OVCAR-3 ovarian
HCT-15 colon = tested on: HCT-15 colon
A549 NSCLC = tested on: A549 NSCLC
SR leukemia = tested on: SR leukemia
NCI-H522 lung = tested on: NCI-H522 lung
SK-MEL-28 melanoma = tested on: SK-MEL-28 melanoma
MOLT-4 leukemia = tested on: MOLT-4 leukemia
A498 renal = tested on: A498 renal
MDA-MB-231 breast = tested on: MDA-MB-231 breast
SW-620 colon = tested on: SW-620 colon
EKVX NSCLC = tested on: EKVX NSCLC
SK-MEL-5 melanoma = tested on: SK-MEL-5 melanoma
T-47D breast = tested on: T-47D breast

CCN1C(=O)N(CC)C2C1NN=c1s/c(=C\c3ccc(C(F)(F)F)cc3)c(=O)n12 (stereo not drawn)
GI50 (OVCAR-4 ovarian): 839 nM
TGI (OVCAR-4 ovarian): > 74500 nM
GI50 (HOP-92 NSCLC): 2200 nM
TGI (HOP-92 NSCLC): 35900 nM
GI50 (UACC-62 melanoma): 577 nM
TGI (UACC-62 melanoma): > 44700 nM
GI50 (SK-OV-3 ovarian): 492 nM
TGI (SK-OV-3 ovarian): > 100000 nM
GI50 (SF-268 CNS): 1030 nM
TGI (SF-268 CNS): > 41000 nM
GI50 (U251 CNS): 443 nM
TGI (U251 CNS): > 41600 nM
GI50 (TK-10 renal): 2230 nM
TGI (TK-10 renal): > 62300 nM
GI50 (KM12 colon): 309 nM
TGI (KM12 colon): > 34900 nM
GI50 (DU-145 prostate): 410 nM
TGI (DU-145 prostate): > 32100 nM
GI50 (ACHN renal): 808 nM
TGI (ACHN renal): 30500 nM
GI50 (BT-549 breast): 783 nM
TGI (BT-549 breast): > 20800 nM
GI50 (UACC-257 melanoma): 7490 nM
TGI (UACC-257 melanoma): 35400 nM
GI50 (SNB-19 CNS): 647 nM
TGI (SNB-19 CNS): > 44800 nM
GI50 (SF-295 CNS): 330 nM
TGI (SF-295 CNS): 31200 nM
GI50 (UO-31 renal): 839 nM
TGI (UO-31 renal): > 42900 nM
GI50 (LOX IMVI melanoma): 483 nM
TGI (LOX IMVI melanoma): > 34600 nM
GI50 (HS 578T breast): 349 nM
TGI (HS 578T breast): > 42500 nM
GI50 (OVCAR-5 ovarian): 619 nM
TGI (OVCAR-5 ovarian): > 43800 nM
GI50 (HL-60(TB) leukemia): 245 nM
TGI (HL-60(TB) leukemia): 609 nM
GI50 (MCF7 breast): 338 nM
TGI (MCF7 breast): > 40000 nM
GI50 (SNB-75 CNS): 180 nM
TGI (SNB-75 CNS): 2740 nM
GI50 (SK-MEL-2 melanoma): 859 nM
TGI (SK-MEL-2 melanoma): > 52300 nM
GI50 (NCI/ADR-RES ovarian): 291 nM
GI50 (PC-3 prostate): 385 nM
TGI (PC-3 prostate): > 41100 nM
GI50 (NCI-H226 lung): 1140 nM
TGI (NCI-H226 lung): > 24800 nM
GI50 (MALME-3M melanoma): 1300 nM
TGI (MALME-3M melanoma): > 47200 nM
GI50 (HCT-116 colon): 343 nM
TGI (HCT-116 colon): > 32800 nM
GI50 (COLO 205 colon): 256 nM
TGI (COLO 205 colon): 888 nM
GI50 (OVCAR-8 ovarian): 467 nM
TGI (OVCAR-8 ovarian): 28200 nM
GI50 (HOP-62 NSCLC): 508 nM
TGI (HOP-62 NSCLC): 29800 nM
GI50 (HT29 colon): 352 nM
TGI (HT29 colon): 11800 nM
GI50 (K-562 leukemia): 294 nM
TGI (K-562 leukemia): > 39800 nM
GI50 (MDA-MB-435): 169 nM
TGI (MDA-MB-435): 437 nM
GI50 (IGROV1 ovarian): 576 nM
TGI (IGROV1 ovarian): 33100 nM
GI50 (NCI-H460 lung): 365 nM
TGI (NCI-H460 lung): 10900 nM
GI50 (M14 melanoma): 311 nM
TGI (M14 melanoma): > 36100 nM
GI50 (SF-539 CNS): 247 nM
TGI (SF-539 CNS): 785 nM
GI50 (CAKI-1 renal): 328 nM
TGI (CAKI-1 renal): 36400 nM
GI50 (RPMI-8226 leukemia): 389 nM
TGI (RPMI-8226 leukemia): 8670 nM
GI50 (NCI-H23 lung): 585 nM
TGI (NCI-H23 lung): > 64400 nM
GI50 (SN12C renal): 678 nM
TGI (SN12C renal): 20000 nM
GI50 (786-0 renal): 1230 nM
TGI (786-0 renal): > 39000 nM
GI50 (HCC-2998 colon): 354 nM
TGI (HCC-2998 colon): 11600 nM
GI50 (CCRF-CEM leukemia): 328 nM
TGI (CCRF-CEM leukemia): 17000 nM
GI50 (OVCAR-3 ovarian): 252 nM
TGI (OVCAR-3 ovarian): 635 nM
GI50 (HCT-15 colon): 318 nM
TGI (HCT-15 colon): > 35600 nM
GI50 (A549 NSCLC): 395 nM
TGI (A549 NSCLC): > 43100 nM
GI50 (SR leukemia): 204 nM
TGI (SR leukemia): 5770 nM
GI50 (NCI-H522 lung): 263 nM
TGI (NCI-H522 lung): 4130 nM
GI50 (SK-MEL-28 melanoma): 2400 nM
TGI (SK-MEL-28 melanoma): 38700 nM
GI50 (MOLT-4 leukemia): 417 nM
TGI (MOLT-4 leukemia): 16300 nM
GI50 (A498 renal): 164 nM
TGI (A498 renal): 719 nM
GI50 (MDA-MB-231 breast): 495 nM
TGI (MDA-MB-231 breast): 8840 nM
GI50 (SW-620 colon): 406 nM
TGI (SW-620 colon): > 42200 nM
GI50 (EKVX NSCLC): 521 nM
TGI (EKVX NSCLC): > 56200 nM
GI50 (SK-MEL-5 melanoma): 488 nM
TGI (SK-MEL-5 melanoma): 2630 nM
GI50 (T-47D breast): 360 nM
TGI (T-47D breast): 71300 nM
